# Measured values from PubChem BioAssay (NCI).
#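 The compound was tested at five concentrations on cells cultured in 96-well plates, with a 48-hour exposure period. TGI denotes the concentration required for complete inhibition of growth.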
# Assays:
# Experiment in all cases: NCI tumour cell line growth inhibition, 48 h
# OVCAR-5 ovarian = tested on: OVCAR-5 ovarian
# CCRF-CEM leukemia = tested on: CCRF-CEM leukemia
# UACC-62 melanoma = tested on: UACC-62 melanoma
# NCI-H460 lung = tested on: NCI-H460 lung
# SN12C renal = tested on: SN12C renal
# SNB-75 CNS = tested on: SNB-75 CNS
# UO-31 renal = tested on: UO-31 renal
# SF-295 CNS = tested on: SF-295 CNS
# OVCAR-8 ovarian = tested on: OVCAR-8 ovarian
# MCF7 breast = tested on: MCF7 breast
# HCT-116 colon = tested on: HCT-116 colon
# NCI-H23 lung = tested on: NCI-H23 lung
# NCI-H522 lung = tested on: NCI-H522 lung
# SF-268 CNS = tested on: SF-268 CNS
# ACHN renal = tested on: ACHN renal
SMILES,TGI (OVCAR-5 ovarian),TGI (CCRF-CEM leukemia),TGI (UACC-62 melanoma),TGI (NCI-H460 lung),TGI (SN12C renal),TGI (SNB-75 CNS),TGI (UO-31 renal),TGI (SF-295 CNS),TGI (OVCAR-8 ovarian),TGI (MCF7 breast),TGI (HCT-116 colon),TGI (NCI-H23 lung),TGI (NCI-H522 lung),TGI (SF-268 CNS),TGI (ACHN renal)
COC(=O)[C@@H]1[C@H](O)CC[C@H]2[C@@]1(C)CC[C@@H](C)[C@]2(COC(C)=O)CC(=O)c1ccoc1,> 50 µM,> 50 µM,> 50 µM,> 50 µM,> 50 µM,> 50 µM,> 50 µM,> 50 µM,> 50 µM,> 50 µM,> 50 µM,> 50 µM,> 50 µM,> 50 µM,> 50 µM
CCCN(CCC)C(=O)c1c(Cl)c2cccnc2n2c(C)cnc12,> 100 µM,> 100 µM,> 100 µM,> 100 µM,> 100 µM,> 100 µM,> 100 µM,> 100 µM,> 100 µM,> 100 µM,> 100 µM,> 100 µM,> 100 µM,> 100 µM,> 100 µM
Cc1cn2c(/C=C3/C(=O)Nc4ccccc43)c(C)nc2s1,> 100 µM,8.91 µM,> 100 µM,16.1 µM,42.2 µM,> 100 µM,61.4 µM,> 100 µM,> 100 µM,> 100 µM,15.5 µM,> 100 µM,21.5 µM,78.1 µM,> 100 µM
CSc1nc(-c2ccc(Cl)cc2)c(C#N)c(=O)[nH]1,> 100 µM,> 100 µM,> 100 µM,> 100 µM,> 100 µM,> 100 µM,> 100 µM,> 100 µM,> 100 µM,> 100 µM,> 100 µM,> 100 µM,> 100 µM,> 100 µM,> 100 µM
CCCCCCC(=O)OC[n+]1cccc(-c2c(COC(=O)NC(C)C)c(COC(=O)NC(C)C)c3n2CCC3)c1,> 100 µM,> 66.5 µM,72.9 µM,> 100 µM,> 100 µM,> 100 µM,63.7 µM,> 100 µM,> 100 µM,> 100 µM,> 87.2 µM,> 74.1 µM,43.6 µM,69.9 µM,89.1 µM
CC(=O)NC1C(OCc2ccccc2)OC(CO)C(O)C1OCC(=O)N1CCCC1C(=O)NC(CCC(=O)NCCCCCNc1c2ccccc2nc2cccc([N+](=O)[O-])c12)C(N)=O (stereo not given),0.06 µM,1.08 µM,0.0751 µM,0.0171 µM,0.0753 µM,0.479 µM,0.115 µM,0.724 µM,0.0817 µM,0.502 µM,0.137 µM,0.904 µM,0.25 µM,0.0966 µM,0.0813 µM
CC(=O)Nc1nnc(S(=O)(=O)NC(=S)Nc2ccc(Cl)cc2)s1,> 100 µM,> 100 µM,> 100 µM,> 100 µM,> 100 µM,> 100 µM,> 100 µM,> 100 µM,> 100 µM,> 100 µM,> 100 µM,> 100 µM,> 100 µM,> 100 µM,> 100 µM
COc1ccccc1N1C(=O)CC(=O)N(C(=O)CCCCCCCCC(=O)N2C(=O)CC(=O)N(c3ccccc3OC)C2=S)C1=S,> 100 µM,> 100 µM,> 100 µM,> 100 µM,> 100 µM,> 100 µM,> 100 µM,> 100 µM,> 100 µM,> 100 µM,> 100 µM,> 100 µM,> 100 µM,> 100 µM,> 100 µM
S=C(Nc1cccc(C2(N3CCCCC3)CCCCC2)c1)Nc1cccc(C2(N3CCCCC3)CCCCC2)c1,> 100 µM,34 µM,33.3 µM,36.7 µM,> 100 µM,28.6 µM,31.5 µM,> 100 µM,59.2 µM,64.1 µM,48.4 µM,> 100 µM,41 µM,> 100 µM,54 µM
CC(Cc1ccc2c(c1)OCO2)N(C)C(=O)C1=CCN(C)CC1 (stereo not given),> 100 µM,> 100 µM,> 100 µM,> 100 µM,> 100 µM,> 100 µM,> 100 µM,> 100 µM,> 100 µM,> 100 µM,> 100 µM,> 100 µM,> 100 µM,> 100 µM,> 100 µM
CC1=C(C(=O)NC(C)(C)C)CC(C(=O)NC(C)(C)C)C(C)N1 (stereo not given),> 100 µM,> 100 µM,> 100 µM,> 100 µM,> 100 µM,> 100 µM,> 100 µM,> 100 µM,> 100 µM,> 100 µM,> 100 µM,> 100 µM,> 100 µM,> 100 µM,> 100 µM
C=CC[C@H]1[C@H](O[Si](C)(C)C(C)(C)C)C=CC(=O)[C@@H]1CC(=O)OCC,27.1 µM,29.9 µM,24.1 µM,27.6 µM,29.9 µM,30.1 µM,25.6 µM,27.8 µM,31.6 µM,23.7 µM,23.5 µM,33.6 µM,26.1 µM,28.9 µM,27.2 µM
Cc1cc(C(O)CNC(C)CCn2cnc3c2c(=O)n(C)c(=O)n3C)ccc1O (stereo not given),> 100 µM,> 100 µM,> 100 µM,> 100 µM,> 100 µM,> 100 µM,> 100 µM,> 100 µM,> 100 µM,> 100 µM,> 100 µM,> 100 µM,> 100 µM,> 100 µM,> 100 µM
Cc1cc(C#N)c(Nc2ccccc2[N+](=O)[O-])s1,62.9 µM,> 100 µM,> 100 µM,> 100 µM,67.7 µM,> 100 µM,> 100 µM,> 100 µM,> 100 µM,> 100 µM,> 100 µM,> 100 µM,57.6 µM,> 100 µM,> 100 µM
O=c1c(Sc2ncccn2)c(Sc2ncccn2)cnn1CCl,21.1 µM,7.68 µM,19 µM,32.9 µM,9.37 µM,34.6 µM,3.45 µM,30 µM,7.53 µM,11.6 µM,3.89 µM,18.3 µM,2.37 µM,9.57 µM,5.45 µM
O=C(O)CCc1nc2cc3ccccc3cc2[nH]c1=O,> 100 µM,> 100 µM,> 100 µM,> 100 µM,> 100 µM,> 100 µM,> 100 µM,> 100 µM,> 100 µM,> 100 µM,> 100 µM,> 100 µM,> 100 µM,> 100 µM,> 100 µM
CC1(C)CC2(C)ON=C(c3ccccc3)N2c2ccccc2N1 (stereo not given),> 100 µM,> 100 µM,27.9 µM,46.9 µM,84 µM,94.9 µM,43.6 µM,> 100 µM,> 100 µM,47 µM,28 µM,82.1 µM,47.3 µM,48.2 µM,68.8 µM
CCOP(=O)(OCC)C(=C1C=C(C(C)(C)C)C(=O)C(C(C)(C)C)=C1)P(=O)(OCC)OCC,> 10 µM,> 6.32 µM,> 10 µM,> 10 µM,> 10 µM,> 10 µM,> 10 µM,> 10 µM,> 10 µM,> 10 µM,5.67 µM,> 10 µM,4.29 µM,> 10 µM,> 3.16 µM
Oc1ccc(Cn2c(-c3ccc(O)cc3)nc3ccccc32)cc1,> 100 µM,> 100 µM,> 100 µM,> 100 µM,> 100 µM,> 100 µM,> 100 µM,> 100 µM,> 100 µM,> 100 µM,> 100 µM,> 100 µM,> 100 µM,> 100 µM,> 100 µM
Cc1ccc(-n2cc(-c3ccc(Cl)cc3)c(C#N)c2N)cc1,30.6 µM,> 100 µM,29.9 µM,30.4 µM,28 µM,47.9 µM,26.5 µM,33.8 µM,30.5 µM,28.2 µM,27.1 µM,31.5 µM,24.7 µM,42.3 µM,50 µM
CCCc1cc(-c2ccc(-c3cc(CCC)c(C=O)[nH]3)s2)[nH]c1C=O,58.7 µM,> 100 µM,> 100 µM,> 100 µM,> 100 µM,> 100 µM,> 100 µM,> 92.4 µM,> 100 µM,> 100 µM,> 100 µM,> 86.1 µM,17.9 µM,> 100 µM,> 100 µM
CN1CCCC(C(=O)OCC(=O)C2(O)CCC3C4CCC5=CC(=O)CCC5(C)C4C(O)CC32C)C1 (stereo not given),52.2 µM,35.6 µM,37.7 µM,28.5 µM,24 µM,17.5 µM,25.4 µM,46.6 µM,35.3 µM,> 65.6 µM,23.5 µM,46.4 µM,45.3 µM,46.4 µM,34.8 µM
COc1ccc(N2C(=O)C3c4[nH]c5ccc(OCc6ccccc6)cc5c4C4CCC(C(C)C)CC4C3C2=O)cc1 (stereo not given),> 100 µM,31.3 µM,> 51.7 µM,> 45.8 µM,> 100 µM,10.4 µM,> 100 µM,29.3 µM,> 100 µM,> 100 µM,> 100 µM,> 45.3 µM,73.4 µM,> 100 µM,> 30.4 µM
CC(=O)/C(=C(/Br)I)c1ccccc1,32.1 µM,11.3 µM,> 48.4 µM,48.3 µM,17.4 µM,39.6 µM,25.1 µM,29 µM,28.1 µM,19.1 µM,15.2 µM,16.8 µM,3.11 µM,> 46.3 µM,27.6 µM
